Values belong to the molecule of their own block, whether it stands above or below them. Where a SMILES comes first, the peptide text is derived from it. The star is where a group is joined. pNA = O=[N+]([O-])c1ccc(N*)cc1
What was measured:
Type in all cases: biochemical
[1] = molecular target: dipeptidyl aminopeptidase I (Aspergillus oryzae, UniProt Q2UH35); assay: relative activity on mono-, di- and tri-peptide para-nitroanilide substrates; conditions: enzyme diluted 100-fold, pH 7.5, ambient temperature; for Activity (mOD/min): substrate 2 mg/ml stock
Protocol: The relative activity of various mono-, di-, and tri-peptide para-nitroanilide substrates were assayed relative to Ala-Pro-pNA with the purified dipeptidyl aminopeptidase I diluted 100-fold in 50 mM sodium phosphate pH 7.5 buffer. Each substrate was dissolved in DMSO to a concentration of 100 mg/ml and then diluted 50 fold in 50 mM sodium phosphate pH 7.5 buffer to 2 mg/ml. The assay was performed by mixing 100 μl of the substrate solution with 100 μl of the dipeptidyl aminopeptidase I solution and monitoring the change in absorbance at 405 nm and ambient temperature.

[2] = substrate: C[C@H](N)C(=O)N1CCC[C@H]1C(=O)Nc1ccc([N+](=O)[O-])cc1; assay: kinetic parameters (Lineweaver-Burke plot) for dipeptidyl aminopeptidase I substrates; conditions: other: 50 mM sodium phosphate pH 7.5
Protocol: (§1) The kinetic parameters for various dipeptidyl aminopeptidase I substrates was determined using the following protocol. The substrates included Ala-Pro-pNA, Asp-Pro-pNA, and Ala-Ala-pNA. Purified dipeptidyl aminopeptidase I with an A280 of 1.521 was diluted 25-fold for Ala-Pro-pNA, 20-fold for Asp-Pro-pNA, and 10-fold for Ala-Ala-pNA in water. Each substrate was dissolved in DMSO to a concentration of 100 mg/ml and then diluted 50 fold in 50 mM sodium phosphate pH 7.5 buffer to 2 mg/ml. In a 96 well microtiter plate, 10 μl of purified dipeptidyl aminopeptidase I was incubated with each substrate as follows except the 200 μl substrate assay was not performed with the Asp-Pro-pNA substrate, and the absorbance at 405 nm was measured for 3 minutes: • 1. 200 μl of 2 mg/ml substrate+0 μl of 50 mM sodium phosphate buffer pH 7.5 • 2. 100 μl of 2 mg/ml substrate+100 μl of 50 mM sodium phosphate buffer pH 7.5 • 3. 50 μl of 2 mg/ml substrate +150 μl of 50 mM sodium phosphate buffer pH 7.5 • 4. 25 μl of 2 mg/ml substrate+175 μl of 50 mM sodium phosphate buffer pH 7.5 • 5. 10 μl of 2 mg/ml substrate+190 μl of 50 mM sodium phosphate buffer pH 7.5 • 6. 5 μl of 2 mg/ml substrate+195 μl of 50 mM sodium phosphate buffer pH 7.5

[3] = substrate: N[C@@H](CC(=O)O)C(=O)N1CCC[C@H]1C(=O)Nc1ccc([N+](=O)[O-])cc1; assay: as above; conditions: other: 50 mM sodium phosphate pH 7.5
Protocol: as §1

[4] = substrate: C[C@H](N)C(=O)N[C@@H](C)C(=O)Nc1ccc([N+](=O)[O-])cc1; assay: as above; conditions: other: 50 mM sodium phosphate pH 7.5
Protocol: as §1

Molecule: C[C@H](N)C(=O)N[C@@H](C)C(=O)N1CCC[C@H]1C(=O)Nc1ccc([N+](=O)[O-])cc1 [Ala-Ala-Pro-pNA] (H-Ala-Ala-Pro-pNA)
Percent Activity Retative to Ala-Pro-pNA [1]: 4.3%
Activity (mOD/min) [1]: 10.6 mOD/min

Molecule: C[C@H](N)C(=O)N1CCC[C@H]1C(=O)Nc1ccc([N+](=O)[O-])cc1 [Ala-Pro-pNA] (H-Ala-Pro-pNA)
Percent Activity Retative to Ala-Pro-pNA [1]: 100%
Activity (mOD/min) [1]: 244 mOD/min

Molecule: CC(C)C[C@H](N)C(=O)Nc1ccc([N+](=O)[O-])cc1 [Leu-pNA]
Percent Activity Retative to Ala-Pro-pNA [1]: 0%
Activity (mOD/min) [1]: 0 mOD/min

Molecule: C[C@H](N)C(=O)Nc1ccc([N+](=O)[O-])cc1 [Ala-pNA]
Percent Activity Retative to Ala-Pro-pNA [1]: 0%
Activity (mOD/min) [1]: 0 mOD/min

Molecule: CC(C)[C@H](N)C(=O)N[C@@H](C)C(=O)Nc1ccc([N+](=O)[O-])cc1 [Val-Ala-pNA] (H-Val-Ala-pNA)
Percent Activity Retative to Ala-Pro-pNA [1]: 20.3%
Activity (mOD/min) [1]: 49.5 mOD/min

Molecule: C[C@H](N)C(=O)N[C@@H](C)C(=O)Nc1ccc([N+](=O)[O-])cc1 [Ala-Ala-pNA] (H-Ala-Ala-pNA)
Percent Activity Retative to Ala-Pro-pNA [1]: 12.4%
Activity (mOD/min) [1]: 30.2 mOD/min

Molecule: NCC(=O)N[C@@H](CCCN=C(N)N)C(=O)Nc1ccc([N+](=O)[O-])cc1 [Gly-Arg-pNA] (H-Gly-Arg-pNA)
Percent Activity Retative to Ala-Pro-pNA [1]: 0%
Activity (mOD/min) [1]: 0 mOD/min

B1: dipeptidyl aminopeptidase I (Aspergillus oryzae RIB40) (protein)
chain: LDVPRKPHAPTGEGSKRLTFNETVVKQAITPTSRSVQWLSGAEDGSYVYAAEDGSLTIENIVTNESRTLIPADKIPTGKEAFNYWIHPDLSSVLWASNHTKQYRHSFFADYYVQDVESLKSVPLMPDQEGDIQYAQWSPVGNTIAFVRENDLYVWDNGTVTRITDDGGPDMFHGVPDWIYEEEILGDRYALWFSPDGEYLAYLSFNETGVPTYTVQYYMDNQEIAPAYPWELKIRYPKVSQTNPTVTLSLLNIASKEVKQAPIDAFESTDLIIGEVAWLTDTHTTVAAKAFNRVQDQQKVVAVDTASNKATVISDRDGTDGWLDNLLSMKYIGPIKPSDKDAYYIDISDHSGWAHLYLFPVSGGEPIPLTKGDWEVTSILSIDQERQLVYYLSTQHHSTERHLYSVSYSTFAVTPLVDDTVAAYWSASFSANSGYYILTYGGPDVPYQELYTTNSTKPLRTITDNAKVLEQIKDYALPNITYFELPLPSGETLNVMQRLPPGFSPDKKYPILFTPYGGPGAQEVTKRWQALNFKAYVASDSELEYVTWTVDNRGTGFKGRKFRSAVTRQLGLLEAEDQIYAAQQAANIPWIDADHIGIWGWSFGGYLTSKVLEKDSGAFTLGVITAPVSDWRFYDSMYTERYMKTLSTNEEGYETSAVRKTDGFKNVEGGFLIQHGTGDDNVHFQNSAALVDLLMGDGVSPEKLHSQWFTDSDHGISYHGGGVFLYKQLARKLYQEKNRQTQVLMHQWTKKDLEE
Km [2]: 140 µM
kcat [2]: 9.605 s⁻¹
Km [3]: 632 µM
kcat [3]: 4.072 s⁻¹
Km [4]: 1080 µM
kcat [4]: 1.775 s⁻¹

Now from value to molecule:

Percent Activity Retative to Ala-Pro-pNA [1]: 0%
Activity (mOD/min) [1]: <2 mOD/min
Molecule: NCC(=O)N[C@@H](CCC(=O)O)C(=O)Nc1ccc([N+](=O)[O-])cc1 [Gly-Glu-pNA] (H-Gly-Glu-pNA)

Percent Activity Retative to Ala-Pro-pNA [1]: 29%
Activity (mOD/min) [1]: 70.95 mOD/min
Molecule: N[C@@H](CC(=O)O)C(=O)N1CCC[C@H]1C(=O)Nc1ccc([N+](=O)[O-])cc1 [Asp-Pro-pNA] (H-Asp-Pro-pNA)

Percent Activity Retative to Ala-Pro-pNA [1]: 42.17%
Activity (mOD/min) [1]: 103 mOD/min
Molecule: N=C(N)NCCC[C@H](N)C(=O)N1CCC[C@H]1C(=O)Nc1ccc([N+](=O)[O-])cc1 [Arg-Pro-pNA] (H-Arg-Pro-pNA)

Percent Activity Retative to Ala-Pro-pNA [1]: 51.25%
Activity (mOD/min) [1]: 125 mOD/min
Molecule: NCC(=O)N1CCCC1C(=O)Nc1ccc([N+](=O)[O-])cc1 (stereo not drawn) [Gly-Pro-pNA]

— patent US7098001B2, “Polypeptides having dipeptidyl aminopeptidase activity and nucleic acids encoding same” (Novozymes, Inc., priority 1997, dated 2006)
